“Also recorded” adds a separate entry of the source.
Test system: late gestating sows
Test: Calcium, phosphorus and energy balance / apparent total tract digestibility (ATTD) study in late gestating sows fed diets with supplemental 1-α-OH-D3
Type: in vivo, pig
Conditions: for ATTD of Ca / ATTD of Dry Matter / ATTD of P / ATTD of gross energy / Absorbed Ca / Absorbed P / Fecal Ca output / Fecal P output / Fecal excretion / Urine Ca output / Urine P output: 12.5 mg/kg diet; for fecal P output, in words / urine P output, in words: vs no supplement
Source text: Thirty six gestating sows were allotted to three blocks of twelve sows using a randomized complete block design. Four diets were fed to the twelve sows in each block. Thus, there were a total of nine replicate sows per diet. Sows were fed experimental diets from day 91 to 105 of gestation and were housed individually in metabolism crates during this period. Metabolism crates were equipped with a feeder, a nipple drinker, and fully slatted T-bar floors. A screen floor and a urine pan were installed below the T-bar floors to allow for collection of feces and urine, respectively. The initial five days of each period in the metabolism crates were considered the adaptation period to the diets followed by four days of fecal collection using the marker to marker procedure (Adeola, O. 2001. Digestion and balance techniques in pigs. In: A. J. Lewis and L. L. Southern, editors, Swine Nutrition. CRC Press, Washington, D.C., USA. p. 903-916.). Fecal collection was initiated when the first marker (i.e., indigo carmine) appeared in the feces and ceased when the second marker (i.e., chromic oxide) appeared (Id.). Urine was collected in buckets placed under the urine pans with 50 mL of 3N HCl from day six in the morning until day ten in the morning. Buckets were emptied daily, the weight of the collected urine was recorded, and 10% of the collected urine was stored at −20° C. until subsampling.
Diets were formulated using a 2×2 factorial arrangement with two levels of calcium and phosphorus (i.e., 100% and 75% of the requirement; NRC, 2012) with a constant calcium to phosphorus ratio (See Table 1) without or with supplemental 1-α-OH-D3 (Alpha D3, Premex Inc., NC). The high level of calcium and phosphorus was 100% requirement for late gestation sows. The low level of calcium phosphorus was 75% of requirement for late gestation sows (NRC. 2012. Nutrient requirements of swine. 11th rev. ed. Natl. Acad. Press, Washington, D.C., USA). The corn-1-α-OH-D3 premix provided 12.5 mg Alpha D3 per kg of complete diet; 1,000 g of 1-α-OH-D3 premix was prepared by mixing 417 mg Alpha D3 and 999.583 g ground corn.
The vitamin-micromineral premix provided the following quantities of vitamins and micro minerals per kilogram of complete diet: vitamin A as retinyl acetate, 10,622 IU; vitamin D3 as cholecalciferol, 1,660 IU; vitamin E as […], 66 IU; vitamin K as menadione nicotinamide bisulfate, 1.40 mg; thiamin as thiamine mononitrate, 1.08 mg; riboflavin, 6.49 mg; pyridoxine as pyridoxine hydrochloride, 0.98 mg; vitamin B12, 0.03 mg; D-pantothenic acid as D-calcium pantothenate, 23.2 mg; niacin, 43.4 mg; folic acid, 1.56 mg; biotin, 0.44 mg; Cu, 20 mg as copper chloride; Fe, 123 mg as iron sulfate; I, 1.24 mg as ethylenediamine dihydriodide; Mn, 59.4 mg as manganese hydroxychloride; Se, 0.27 mg as sodium selenite and selenium yeast; and Zn, 124.7 mg as zinc hydroxychloride.
All vitamins and minerals except calcium and phosphorus were included in all diets to meet or exceed nutrient requirements (NRC, 2012). Daily feed allotments were provided in a meal that was fed at 7 AM throughout the experiment. The daily feed allowance was 1.5 times the maintenance energy requirement for gestating sows based on the initial body weight of sows (i.e., 100 kcal ME/kg BW0.75; NRC. 2012. Nutrient requirements of swine. 11th rev. ed. Natl. Acad. Press, Washington, D.C., USA). Water was available at all times.
At the conclusion of the testing, urine samples were thawed and mixed within animal and collection period and subsamples were collected. Fecal samples were stored at −20° C. as soon as collected, and at the conclusion of the experiment, samples were dried at 65° C. in a forced air oven and finely ground through a 1-mm screen before analysis using a Wiley mill (Model 4; Thomas Scientific, Swedesboro, N.J.). […]

[1] = high level of dietary calcium and phosphorus, P<0.05
[2] = low level of dietary calcium and phosphorus
[3] = supplemented vs no supplemental 1-α-OH-D3, main effect, P<0.01
[4] = supplemented vs no supplemental 1-α-OH-D3, regardless of dietary Ca and P levels, P<0.05

## C=C1/C(=C\C=C2/CCC[C@]3(C)[C@@H]([C@H](C)CCCC(C)C)CC[C@@H]23)C[C@@H](O)C[C@@H]1O [1-α-OH-D3, 1-alpha-hydroxycholecalciferol]
High Ca and P levels
  ATTD of Ca: 30.25%
  ATTD of Dry Matter: 87.72%
  ATTD of P: 34.7%
  ATTD of gross energy: 87.3%
  Absorbed Ca: 6.63 grams/day
  Absorbed P: 5.19 grams/day
  Fecal Ca output: 15.00 grams/day
  Fecal P output: 9.71 grams/day
  Fecal excretion: 0.32 kg dry matter/d
  Urine Ca output: 0.59 grams/day
  Urine P output: 0.99 grams/day
Low Ca and P levels
  ATTD of Ca: 30.49%
  ATTD of Dry Matter: 88.31%
  ATTD of P: 29.63%
  ATTD of gross energy: 87.5%
  Absorbed Ca: 4.66 grams/day
  Absorbed P: 3.16 grams/day
  Fecal Ca output: 10.89 grams/day
  Fecal P output: 7.67 grams/day
  Fecal excretion: 0.30 kg dry matter/d
  Urine Ca output: 0.99 grams/day
  Urine P output: 0.12 grams/day
[1]
  fecal P output, in words: decreased
  urine P output, in words: decreased
[2]
  fecal P output, in words: no difference
  urine P output, in words: no difference
Supplemented vs no supplemental 1-α-OH-D3, main effect
  ATTD of dry matter, in words: greater
Supplemented vs no supplemental 1-α-OH-D3, main effect over both Ca and P levels, P<0.05
  fecal excretion, in words: less
[3]
  ATTD of calcium, in words: greater; also recorded: increased
  ATTD of gross energy, in words: increases
  Fecal calcium output, in words: less
  absorbed calcium, in words: greater
  calcium retention, in words: greater; also recorded: increased
  concentration of digestible energy in diets, in words: increases
  urine calcium outputs, in words: increased
[4]
  ATTD of phosphorus, in words: greater; also recorded: increased
  absorbed phosphorus, in words: greater
  phosphorus retention, in words: greater; also recorded: increased

Reference: patent US20230135029A1, “COMPOSITIONS AND METHODS FOR INCREASING DIGESTIBILITY OF CALCIUM AND PHOSPHOROUS IN PIGS” (Premex, Inc., priority 2020, published 2023)
